Results: US20020193850A1, “Use of photodynamic therapy to treat prostatic tissue” (priority 1993, published 2002)
Like-named read-outs stand apart in the source and are kept apart here. Marks after values point to notes of the source that are not given here.

Assays:
[1] = 1.0 mg/kg, 24 hours after injection
Method: (§1) Animals: Adult mongrel dogs were used in all experiments. Dogs were housed 1/cage and given water and canine chow (Purina Chow, Ralston Purina Corp.) ad libitum.
(§2) Photosensitive composition: The photosensitizer, tin ethyl etiopurpurin was used. The photosensitizer was administered in anesthetized (xylazine/ketamine) dogs as an emulsion via antecubital vein 24 hours prior to light treatment.
Photosensitizer extraction: The animals were injected with 1.0 mg/kg of the photosensitizer. Twenty-four hours later, prostate and other tissues were removed from euthanized animals. Tissue samples were removed from the periurethral prostate and the more peripheral regions. Additionally, the mucosa of the urethra was dissected and its photosensitizer content determined. Bladder mucosa and muscularis were also removed. Tissue was weighed and homogenized with a biohomogenizer (Biospec Products, Inc., Bartleville, Okla.) in 3% acetic acid. After homogenization, a 3:1 ethyl acetate:glacial acetic acid mixture was added and mixed vigorously. The sample was then frozen at −20° C. for at least two hours after which it was thawed and saturated sodium acetate added. The ethyl acetate layer, containing the photosensitizer, was removed and its concentration determined using absorbance spectrophotometry (Response II spectrophotomer, Gilford, Oberlin, Ohio).

prostatic tissue = assay: Transurethral photodynamic therapy of the prostate
Method: as §1, §2
Light source and delivery: An LTI 660 dye laser (PDT Systems, Santa Barbara, Calif.) pumped by a KTP/YAG laser (Laserscope, San Jose, Calif.), was used as a light source. Laser light was delivered to the prostate via a 400 micron optical fiber fitted with a 2.0 cm flexible cylindrical diffuser tip (PDT Systems, Inc., Santa Barbara, Calif.).
Tissue Preparation: On removal, the prostates were photographed and then fixed in a 10% buffered formalin solution. After fixation, tissue was sectioned at 5u intervals and stained with H & E. Sections of the urinary bladder were removed and prepared in a similar manner.
Prostate treatment: The animals were injected with 1.0 mg/kg of the photosensitizer. Twenty-four hours after photosensitizer administration the animals were anesthetized with intravenous sodium barbiturate. The animals were intubated and maintained on a respirator during light treatment. They were treated in the dorsolithotomy position. The 2 cm. diffusing tip of the laser fiber was localized in the prostatic urethra under transrectal ultrasound guidance. A Bruel and Kreuger 7.0 megahertz ultrasound scanner with a transrectal probe was used. The laser fiber was placed within a transparent 10F Stamey catheter (TFX Medical, Duluth, Ga.) which was used as a laser fiber carrier. The tip of the catheter was positioned immediately outside the bladder neck. Once positioned, the prostate was treated with 300 (260 mW/cm^2) joules of laser light. The animals were then recovered and returned to their cages, Indwelling catheters were not used after treatment.

R3327AT prostate tumor [2] = assay: R3327AT prostate tumor model, photodynamic therapy, tumor growth delay (Example 2); assay type: in vivo, male Copenhagen rats; conditions: drug dose 1.5 mg/kg
Method: The R3327AT prostate tumor model was used in male Copenhagen rats which were injected with 1.5 mg/kg body wt. of SnET2 (tin ethyl etiopurpurin Emulsion, (0.94 mg/ml) PDT Pharmaceuticals). Each rat had one flank tumor (R3327AT). After two weeks, the tumors ranged from 1.0 to 1.6 cm in length. Twenty four hours after TEP injection, the tumor area received photodynamic therapy with a light source of a KTP pumped 660 dye laser (PDT Systems). The KTP/660 dye laser was tuned to 660 nm; power density: 200 mw/cm^2; light dose: 0, 200, 300 and 400 Joules. Tumor temperatures were monitored using a 23 gge. hypodermic probe (YSI) placed percutaneously beneath the treated tumor. If needed, the tumors were cooled by a jet of cool air. Tumors were measured and recorded three times per week.
The linear regression of tumor growth (represented as tumor volume) for each rat was plotted. The number of days it took the treated tumors to reach their initial tumor volume at the time of treatment was determined by the intercept with a horizontal line drawn at the mean initial tumor volume for all groups. The mean number of days for each light/drug dose group to reach its initial tumor size is recorded in Table 3 below.

R3327AT prostate tumor [3] = assay: R3327AT prostate tumor model, photodynamic therapy with 659 YAG or 660 Dye laser (Example 3); assay type: in vivo, male Copenhagen rats; conditions: 1.5 mg/kg
Method: The R3327AT prostate tumor model was used in male Copenhagen rats which were injected with 1.5 mg/kg body wt. of SnET2 (Tin Ethyl Etiopurpurin Emulsion, PDT Pharmaceuticals). Each rat had one flank tumor (R3327AT). After two weeks, the tumors ranged from 1.0 to 1.6 cm in length. Twenty four hours (+/−2 hrs.) after SnET2 injection the tumor area received photodynamic therapy using either a 659 YAG or 660 Dye laser fiber optically coupled to a 3-way fiber splitter.
Tumor temperatures were monitored using a 23 gge. hypodermic probe (YSI) placed percutaneously beneath the treated tumor. If needed, the tumors were cooled by a jet of cool air. Tumor diameters were measured and recorded three times per week.
Tumor growth was monitored by calculating volumes from the recorded measurements of tumor width, height and length. The rate of growth is presented as the number of days required for an individual tumor to reach 2, 5 or 10 times initial volume. This method of analysis of tumor growth accounts for variations due to differing initial tumor volume (Gibson and Hilf, Cancer Research, 1990). […] Only at the 200 Joule fluence level was there any significant difference between the YAG and Dye lasers in producing tumor growth delay.

[4] = Mean +/- SD, listed as Photosensitizer, 1 mg/kg

In the case of `CCOC(=O)C1=Cc2c3nc(cc4nc(cc5[n-]c(cc6[n-]c2c(C)c6CC)c(C)c5CC)C(C)=C4CC)[C@@H](C)[C@]13CC.[Cl-].[Cl-].[Sn]` (racemic) [SnET2, tin ethyl etiopurpurin], the “Tissue levels of photosensitizer compared with plasma levels” value [1] is reported as “significantly greater than plasma levels”, the “Photosensitizer concentration, Bladder” value ([1]; Dog 1) is reported as 0.2 µg/g and the “Photosensitizer concentration, Prostate” value ([1]; Dog 1) is reported as 2.1 * ug/g. For the same molecule, the “Photosensitizer concentration, Urethra” value ([1]; Dog 1) was 0.5 µg/g, the “Photosensitizer concentration, Bladder” value ([1]; Dog 2) was 0.2 µg/g and the “Photosensitizer concentration, Kidney” value ([1]; Dog 2) was 2.5 µg/g. For the same molecule, the “Photosensitizer concentration, Liver” value ([1]; Dog 2) was 6.7 µg/g, the “Photosensitizer concentration, Muscle” value ([1]; Dog 2) was 0.3 µg/g and the “Photosensitizer concentration, Plasma (24-hr)” value ([1]; Dog 2) was 0.1 * * ug/ml. For the same molecule, the “Photosensitizer concentration, Prostate” value ([1]; Dog 2) was 0.8 µg/g, the “Photosensitizer concentration, Spleen” value ([1]; Dog 2) was 0.8 µg/g and the “Photosensitizer concentration, Urethra” value ([1]; Dog 2) was 0.3 µg/g. The “Photosensitizer concentration, Bladder” value ([1]; Dog 3) was 0.2 µg/g, the “Photosensitizer concentration, Kidney” value ([1]; Dog 3) was 2.9 µg/g and the “Photosensitizer concentration, Liver” value ([1]; Dog 3) was 6.1 µg/g. For the same molecule, the “Photosensitizer concentration, Muscle” value ([1]; Dog 3) was 0.2 µg/g, the “Photosensitizer concentration, Plasma (24-hr)” value ([1]; Dog 3) was 0.1 µg/mL and the “Photosensitizer concentration, Prostate” value ([1]; Dog 3) was 0.9 µg/g. The “Photosensitizer concentration, Spleen” value ([1]; Dog 3) was 0.8 µg/g, the “Photosensitizer concentration, Urethra” value ([1]; Dog 3) was 0.2 µg/g and the “Photosensitizer concentration, Kidney” value ([1]; Mean +/- SD) was 2.7 ± 0.2 µg/g. For the same molecule, the “Photosensitizer concentration, Liver” value ([1]; Mean +/- SD) was 6.7 ± 0.2 µg/g, the “Photosensitizer concentration, Muscle” value ([1]; Mean +/- SD) was 0.3 ± 0.1 µg/g and the “Photosensitizer concentration, Plasma (24-hr)” value ([1]; Mean +/- SD) was 0.1 ± 0 µg/mL. For the same molecule, the “Photosensitizer concentration, Spleen” value ([1]; Mean +/- SD) was 0.8 ± 0 µg/g, the “Photosensitizer concentration, Bladder” value [1, 4] was 0.2 ± 0 µg/g and the “Photosensitizer concentration, Prostate” value [1, 4] was 1.3 ± 0.6 µg/g. For the same molecule, the “Photosensitizer concentration, Urethra” value [1, 4] was 0.3 ± 0.1 µg/g, the “Prostate effects of photosensitizer and light” value (prostatic tissue; 1.0 mg/kg, light 24 hours later, 300 joules (260 mW/cm^2), transurethral) was “showed evidence of a photodynamic effect” and the Urethral mucosa (prostatic tissue; 3 weeks following treatment, 1.0 mg/kg, 300 joules) was “The urethral mucosa had regenerated”. The Urethral epithelium (prostatic tissue; 48 hours following photodynamic therapy, 1.0 mg/kg, 300 joules) was “loss of the urethral epithelium”, the “Animal recovery: voiding” value (prostatic tissue; after photodynamic therapy, no indwelling catheter, 1.0 mg/kg, 300 joules) was “All animals were able to void spontaneously” and the “Animal recovery: hematuria” value (prostatic tissue; after photodynamic therapy, 1.0 mg/kg, 300 joules) was “Two of the animals developed gross hematuria”. For the same molecule, the “Changes in the bladder” value (prostatic tissue; after photodynamic therapy, believed due to movement or inaccurate placement of the light guide) was “In two of the animals there were extensive changes in the bladder”, the Histology of prostate (prostatic tissue; prostate removed 3 weeks following treatment, 1.0 mg/kg, 300 joules) was “glandular atrophy and replacement with fibrous tissue” and the “Histologic examination of prostate around the urethra” value (prostatic tissue; prostates removed 48 hours following photodynamic therapy, 1.0 mg/kg, 300 joules) was “extensive hemmorhagic necrosis”. The “# of Days of Growth Delay” value (R3327AT prostate tumor [2]; Group II: light dose 0 Joules) was 0 days, the “# of Days of Growth Delay” value (R3327AT prostate tumor [2]; Group III: light dose 200 Joules, 660 nm, 200 mw/cm^2) was 6.2 ± 1.2 days and the “# of Days of Growth Delay” value (R3327AT prostate tumor [2]; Group IV: light dose 300 Joules, 660 nm, 200 mw/cm^2) was 5.8 ± 0.8 days. The “# of Days of Growth Delay” value (R3327AT prostate tumor [2]; Group V: light dose 400 Joules, 660 nm, 200 mw/cm^2) was 11.4 ± 3.7 days, the “Difference between 660 Dye and 659 YAG lasers as light source for photodynamic therapy” value (R3327AT prostate tumor [3]; 200 mw/cm^2, significant difference only at the 200 Joule fluence level) was “no consistent significant difference” and the “Tumor growth delay from initial to 2 times initial volume as compared to controls” value (R3327AT prostate tumor [3]; 659 YAG and 660 Dye lasers, 200-400 Joules, especially at the 400 Joule level) was “effective in delaying tumor growth”.
